Results published in patent US7547727B2, “Therapeutic cyclopentane derivatives” (Allergan, Inc., priority 2006, dated 2009).

Key:
[1] = target: T1, hTP (Homo sapiens, UniProt P21731); test: FLIPR calcium signal, TP; type: cell-based; details: HEK-293(EBNA) cells
T1 construct: expressed in transfected cells; host or cells: HEK-293(EBNA)
T1 sequence (P21731 1-343): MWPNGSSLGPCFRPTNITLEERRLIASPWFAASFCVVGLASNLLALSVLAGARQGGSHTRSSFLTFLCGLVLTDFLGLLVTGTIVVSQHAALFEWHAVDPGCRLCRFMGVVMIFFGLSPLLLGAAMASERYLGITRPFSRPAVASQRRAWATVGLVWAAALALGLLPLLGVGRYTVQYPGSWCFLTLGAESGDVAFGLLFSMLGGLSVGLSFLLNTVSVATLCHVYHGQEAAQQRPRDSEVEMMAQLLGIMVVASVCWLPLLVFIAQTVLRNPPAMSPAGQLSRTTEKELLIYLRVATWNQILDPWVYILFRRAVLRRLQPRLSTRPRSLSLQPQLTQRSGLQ
Method: (§1) HEK-293(EBNA) cells, stably expressing one type or subtype of recombinant human prostaglandin receptors (prostaglandin receptors expressed: hDP/Gqs5; hEP1; hEP2/Gqs5; hEP3A/Gqi5; hEP4/Gqs5; hFP; hIP; hTP), were cultured in 100 mm culture dishes in high-glucose DMEM medium containing 10% fetal bovine serum, 2 mM I-glutamine, 250 μg/ml geneticin (G418) and 200 μg/ml hygromycin B as selection markers, and 100 units/ml penicillin G, 100 μg/ml streptomycin and 0.25 μg/ml amphotericin B.
(§2) Cells were seeded at a density of 5×10^4 cells per well in Biocoat® Poly-D-lysine-coated black-wall, clear-bottom 96-well plates (Becton-Dickinson) and allowed to attach overnight in an incubator at 37° C. Cells were then washed two times with HBSS-HEPES buffer (Hanks Balanced Salt Solution without bicarbonate and phenol red, 20 mM HEPES, pH 7.4) using a Denley Cellwash plate washer (Labsystems). […]
(§3) Cells were excited with an Argon laser at 488 nm, and emission was measured through a 510-570 nm bandwidth emission filter (FLIPR™, Molecular Devices, Sunnyvale, Calif.). […] The peak increase in fluorescence intensity was recorded for each well. […] The peak fluorescence change in each drug-containing well was then expressed relative to the controls. […]

[2] = target: T2, human EP2 receptors (Homo sapiens, UniProt P43116); test: Competition radioligand binding, EP2; details: HEK 293 cells stably expressing human EP2 receptors, [3H]PGE2
T2 construct: expressed in transfected cells; host or cells: HEK 293 (membranes or whole cells)
T2 sequence (P43116 whole entry): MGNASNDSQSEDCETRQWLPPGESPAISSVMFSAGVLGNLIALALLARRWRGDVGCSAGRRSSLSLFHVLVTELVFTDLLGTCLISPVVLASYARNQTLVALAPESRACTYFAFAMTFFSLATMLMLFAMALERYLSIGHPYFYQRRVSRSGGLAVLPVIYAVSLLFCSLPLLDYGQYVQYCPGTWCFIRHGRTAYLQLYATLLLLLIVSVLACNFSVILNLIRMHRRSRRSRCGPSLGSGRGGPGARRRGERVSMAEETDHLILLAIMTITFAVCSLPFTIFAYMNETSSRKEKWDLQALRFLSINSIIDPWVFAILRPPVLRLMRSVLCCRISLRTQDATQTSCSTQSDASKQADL
Method: Competition binding experiments were performed in a medium containing Hank's balanced salt solution, Hepes 20 mM, pH 7.3, membranes (˜60 μg protein) or 2×10^5 cells from HEK 293 cells stably expressing human EP2 receptors, [^3H]PGE2 (10 nM) and various concentrations of test compounds in a total volume of 300 μl. Reaction mixtures were incubated at 23° C. for 60 min, and were filtered over Whatman GF/B filters under vacuum. Filters were washed three times with 5 ml ice-cold buffer containing 50 mM Tris/HCl (pH 7.3). Non-specific binding was estimated in the presence of excess unlabeled PGE2 (10 μM). Binding data fitted to the binding model for a single class of binding sites, using nonlinear regression analysis. IC50 values thus obtained were converted to Ki using the equation of Ki=(IC50/(1+[L]/KD) where [L] represents PGE2 concentration (10 nM) and KD the dissociation constant for [^3H]PGE2 at human EP2 receptors (40 nM). […]
The cell homogenate was centrifuged at 19000 r.p.m. for 20 min at 4° C. using a Beckman Ti-60 rotor. The resultant pellet was resuspended in TME buffer to give a final 1 mg/ml protein concentration, as determined by Biorad assay. […]
[^3H-] […] 17-phenyl PGF2α and non-specific binding determined with 10^−5M of unlabeled PGE2, or 17-phenyl PGF2α, according to receptor subtype studied.

[3] = target: T3, hIP (Homo sapiens, UniProt P43119); test: FLIPR calcium signal, IP; type: cell-based; details: HEK-293(EBNA) cells
T3 construct: expressed in transfected cells; host or cells: HEK-293(EBNA)
T3 sequence (P43119 whole entry): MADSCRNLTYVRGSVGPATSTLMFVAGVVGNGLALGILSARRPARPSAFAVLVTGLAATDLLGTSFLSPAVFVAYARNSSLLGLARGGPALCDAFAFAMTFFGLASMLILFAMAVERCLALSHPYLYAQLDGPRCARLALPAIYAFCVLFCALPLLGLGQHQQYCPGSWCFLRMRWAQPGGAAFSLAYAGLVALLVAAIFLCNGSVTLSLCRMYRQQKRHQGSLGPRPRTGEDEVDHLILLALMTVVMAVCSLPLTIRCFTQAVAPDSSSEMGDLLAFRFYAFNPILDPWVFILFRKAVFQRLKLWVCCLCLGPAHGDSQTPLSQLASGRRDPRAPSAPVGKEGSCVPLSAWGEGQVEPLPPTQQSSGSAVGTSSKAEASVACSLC
Method: as §1, §2, §3

[4] = target: T4, hEP4/Gqs5 (Homo sapiens, UniProt P35408); test: FLIPR calcium signal, EP4; type: cell-based; details: HEK-293(EBNA) cells
T4 construct: expressed in transfected cells; host or cells: HEK-293(EBNA)
T4 sequence (P35408 whole entry): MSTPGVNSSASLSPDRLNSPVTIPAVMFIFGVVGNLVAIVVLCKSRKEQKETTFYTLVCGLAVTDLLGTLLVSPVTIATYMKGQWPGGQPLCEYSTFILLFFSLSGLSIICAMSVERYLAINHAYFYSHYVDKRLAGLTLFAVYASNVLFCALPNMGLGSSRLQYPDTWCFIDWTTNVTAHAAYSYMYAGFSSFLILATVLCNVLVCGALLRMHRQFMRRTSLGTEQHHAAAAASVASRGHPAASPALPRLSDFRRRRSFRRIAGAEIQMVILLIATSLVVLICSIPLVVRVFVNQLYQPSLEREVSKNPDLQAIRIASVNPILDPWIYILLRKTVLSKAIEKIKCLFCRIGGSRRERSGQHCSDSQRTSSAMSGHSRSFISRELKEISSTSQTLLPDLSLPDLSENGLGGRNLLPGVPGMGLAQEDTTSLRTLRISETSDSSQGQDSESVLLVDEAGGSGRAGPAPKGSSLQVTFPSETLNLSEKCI
Method: as §1, §2, §3

[5] = target: T5, EP4 receptors (Homo sapiens, UniProt P35408); test: Radioligand binding, EP4; details: HEK-293 cells stably expressing EP4 receptors, [3H]PGE2
T5 construct: expressed in transfected cells; host or cells: HEK-293 (plasma membrane fraction)
T5 sequence (P35408 whole entry): as above
Method: HEK-293 cells stably expressing the human or feline FP receptor, or EP1, EP2, or EP4 receptors were washed with TME buffer, scraped from the bottom of the flasks, and homogenized for 30 sec using a Brinkman PT 10/35 polytron. TME buffer was added to achieve a final 40 ml volume in the centrifuge tubes (the composition of TME is 100 mM TRIS base, 20 mM MgCl2, […]; 10N HCl is added to achieve a pH of 7.4).
The cell homogenate was centrifuged at 19000 r.p.m. for 20 min at 4° C. using a Beckman Ti-60 rotor. The resultant pellet was resuspended in TME buffer to give a final 1 mg/ml protein concentration, as determined by Biorad assay. Radioligand binding competition assays vs. [^3H-]17-phenyl PGF2α (5 nM) were performed in a 100 μl volume for 60 min. Binding reactions were started by adding plasma membrane fraction. The reaction was terminated by the addition of 4 ml ice-cold TRIS-HCl buffer and rapid filtration through glass fiber GF/B filters using a Brandel cell harvester. The filters were washed 3 times with ice-cold buffer and oven dried for one hour.
[^3H-] PGE2 (specific activity 180 Ci mmol) was used as the radioligand for EP receptors. [^3H] 17-phenyl PGF2α was employed for FP receptor binding studies. […] 17-phenyl PGF2α and non-specific binding determined with 10^−5M of unlabeled PGE2, or 17-phenyl PGF2α, according to receptor subtype studied.

[6] = target: T6, hEP1 (Homo sapiens, UniProt P34995); test: FLIPR calcium signal, EP1; type: cell-based; details: HEK-293(EBNA) cells
T6 construct: expressed in transfected cells; host or cells: HEK-293(EBNA)
T6 sequence (P34995 1-402): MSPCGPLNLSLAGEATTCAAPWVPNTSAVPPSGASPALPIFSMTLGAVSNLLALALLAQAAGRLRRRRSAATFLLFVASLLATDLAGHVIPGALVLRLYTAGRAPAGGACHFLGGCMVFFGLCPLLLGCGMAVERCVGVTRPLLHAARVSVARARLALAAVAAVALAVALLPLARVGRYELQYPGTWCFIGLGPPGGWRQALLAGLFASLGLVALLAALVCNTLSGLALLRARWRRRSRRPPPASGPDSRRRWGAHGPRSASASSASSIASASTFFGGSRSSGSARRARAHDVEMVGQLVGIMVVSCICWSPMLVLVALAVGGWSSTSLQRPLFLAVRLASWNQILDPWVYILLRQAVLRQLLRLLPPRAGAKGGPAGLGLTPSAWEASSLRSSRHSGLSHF
Method: as §1, §2, §3

[7] = target: T7, hEP2/Gqs5 (Homo sapiens, UniProt P43116); test: FLIPR calcium signal, EP2; type: cell-based; details: HEK-293(EBNA) cells, read-out: Ca2+ Signal-EC50(nM) EP2
T7 construct: expressed in transfected cells; host or cells: HEK-293(EBNA)
T7 sequence (P43116 whole entry): as the sequence (P43116 whole entry) above
Method: as §1, §2, §3

[8] = target: T8, hEP3A/Gqi5 (Homo sapiens, UniProt P43115); test: FLIPR calcium signal, EP3; type: cell-based; details: HEK-293(EBNA) cells, read-out: Ca2+ Signal-EC50(nM) EP3
T8 construct: expressed in transfected cells; host or cells: HEK-293(EBNA)
T8 sequence (P43115 1-390): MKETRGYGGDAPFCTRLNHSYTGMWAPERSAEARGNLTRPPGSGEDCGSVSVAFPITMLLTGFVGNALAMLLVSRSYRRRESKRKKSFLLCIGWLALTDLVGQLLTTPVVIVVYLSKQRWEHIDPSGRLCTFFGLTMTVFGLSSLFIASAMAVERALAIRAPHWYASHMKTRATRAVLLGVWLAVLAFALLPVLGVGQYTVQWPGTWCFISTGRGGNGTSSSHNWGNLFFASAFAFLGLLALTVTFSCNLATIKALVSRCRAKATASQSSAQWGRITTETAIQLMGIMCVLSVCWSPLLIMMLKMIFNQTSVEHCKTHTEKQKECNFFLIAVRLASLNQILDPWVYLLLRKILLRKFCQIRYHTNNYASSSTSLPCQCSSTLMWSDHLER
Method: as §1, §2, §3

[9] = target: T9, hFP (Homo sapiens, UniProt P43088); test: FLIPR calcium signal, FP; type: cell-based; details: HEK-293(EBNA) cells
T9 construct: expressed in transfected cells; host or cells: HEK-293(EBNA)
T9 sequence (P43088 whole entry): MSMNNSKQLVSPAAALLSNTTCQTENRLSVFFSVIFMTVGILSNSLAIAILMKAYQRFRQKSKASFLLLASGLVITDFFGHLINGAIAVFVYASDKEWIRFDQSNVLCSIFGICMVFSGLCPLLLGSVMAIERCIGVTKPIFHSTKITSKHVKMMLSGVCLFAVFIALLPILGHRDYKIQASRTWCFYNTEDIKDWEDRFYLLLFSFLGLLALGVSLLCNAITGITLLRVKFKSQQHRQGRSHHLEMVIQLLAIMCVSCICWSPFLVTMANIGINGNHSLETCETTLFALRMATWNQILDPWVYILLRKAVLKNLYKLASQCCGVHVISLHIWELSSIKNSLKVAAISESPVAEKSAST
Method: as §1, §2, §3

[10] = target: T10, hDP/Gqs5 (Homo sapiens, UniProt Q13258); test: FLIPR calcium signal, DP; type: cell-based; details: HEK-293(EBNA) cells
T10 construct: expressed in transfected cells; host or cells: HEK-293(EBNA)
T10 sequence (Q13258 1-359): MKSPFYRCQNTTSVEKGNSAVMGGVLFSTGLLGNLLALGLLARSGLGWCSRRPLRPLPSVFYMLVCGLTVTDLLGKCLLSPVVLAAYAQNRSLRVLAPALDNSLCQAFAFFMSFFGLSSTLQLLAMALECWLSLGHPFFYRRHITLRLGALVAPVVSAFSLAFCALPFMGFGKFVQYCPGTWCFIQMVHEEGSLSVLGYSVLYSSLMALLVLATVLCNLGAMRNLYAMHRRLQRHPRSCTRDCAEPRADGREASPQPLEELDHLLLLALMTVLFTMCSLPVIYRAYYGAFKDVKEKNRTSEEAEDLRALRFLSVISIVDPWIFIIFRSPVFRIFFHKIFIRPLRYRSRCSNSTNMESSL
Method: as §1, §2, §3

For CCCCCC(O)c1ccc([C@@H]2[C@@H](C/C=C\CCCC(=O)O)[C@H](C#N)C[C@H]2O)cc1 (stereo partly drawn) [(Z)-7-{(1S,2S,3R,5R)-5-Cyano-3-hydroxy-2-[4-(1-hydroxy-hexyl)-phenyl]-cyclopentyl}-hept-5-enoic acid], the “Ca2+ Signal-EC50(nM) TP” value [1] was “not active”, the Ki [2] was 1250 nM and the “Ca2+ Signal-EC50(nM) IP” value [3] was “not active”. The “Ca2+ Signal-EC50(nM) EP4” value [4] was “not active”, the Ki [5] was greater than 10000 nM and the “Ca2+ Signal-EC50(nM) EP1” value [6] was “not active”. The EC50 [7] was 34 nM, the EC50 [8] was 10000 nM and the “Ca2+ Signal-EC50(nM) FP” value [9] was “not active”. The “Ca2+ Signal-EC50(nM) DP” value [10] was “not active”.
